Laboratory results as given in patent US20240082392A1, “USE OF SYNTHETIC PEPTIDE FOR THE INDUCTION OF ANTITUMOR AND ANTIVIRAL IMMUNITY” (CENTRO DE INGENIERÍA GENÉTICA Y BIOTECNOLOGÍA, priority 2020, published 2024).
Where a SMILES comes first, the peptide text is derived from it. Bridges are numbered along the chain shown (N, C = ends).

Experiments:
[1] = system: RagOT-I cells / dendritic cells matured with treated 3LL cells; assay: In vitro activation of OT-I CD8+ T cells by dendritic cells, IFN-γ ELISA; format: cell-based, mouse; conditions: versus negative control, CX4945 and Tat peptide
Protocol: Additionally, the ability of activating CD8+ T cells in vitro by these dendritic cells matured with peptide-treated 3LL cells was evaluated. For this purpose, dendritic cells previously co-incubated with tumor cells, under the conditions described above, were washed and loaded with the […] peptide from OVA, MHC class I restricted, at different concentrations (0, 10, 30 and 100 pg/mL) during three hours. After that time, they were washed again and co-incubated with RagOT-I cells in a 1:1 ratio for 48 hours. IFN-γ production was finally quantified by ELISA. RagOT-I cells co-incubated with dendritic cells previously incubated with untreated 3LL cells constituted the negative control of experiment.

L1210 cells [2] = assay: Tumor microenvironment in DBA/2 mice: serum cytokines and intratumoral cell populations; format: in vivo; conditions: for modulation in cytokine levels (IL12p70, TNF-α, IL-6, IL-10): Tat 20 mg/kg intratumoral, DOX 10 mM intratumoral, CX4945 75 mg/kg oral twice a day, five days; for intratumoral Foxp3+ T cell levels: peptide 20 mg/kg, DOX 10 mM, Tat 20 mg/kg, CX4945 75 mg/kg oral
Protocol: To study whether the peptide identified as SEQ ID NO: 1 was capable of modulating the tumor microenvironment, female DBA/2 mice, 6-8 weeks old, and between 17-19 grams were inoculated with 0.5×10^6 L1210 cells, subcutaneously, into right flank (inguinal inoculation). Seven days after tumor challenge, 42 mice with palpable and non-measurable tumor were selected, which were random assigned to six groups of seven animals each. […] DOX (10 mM) and Tat peptide (20 mg/kg), were administered intratumorally, in a final volume of 50 μL, a daily inoculation for five days. The compound CX4945 (75 mg/kg) was administered in 25 mM NaH2PO4 buffer, twice a day, orally, for five days. Seven days after the end of the treatment, the mice were euthanized to obtain the tumors (day 18 of the procedure). Before sacrificing the mice, blood samples were obtained for the cytokines (IL-6, IL-10, IL-12p70, TNF-α) detection by ELISA. Tumors were cut into small pieces and transferred to gentleMACS tubes with RPMI medium, supplemented with an enzyme cocktail from Tumor Dissociation kit (Miltenyi Biotech, Germany). Tumor dissociation was performed using the gentleMACS™ Dissociator kit and a tumor dissociation kit (Miltenyi Biotech, Germany). The digested suspension was filtered, centrifuged and labeled with specific antibodies against CD8, CD4, Foxp3, CD11c, CD86 and CD40.

K562 cells = assay: NK cytotoxic activity, Cr51 release; format: cell-based; conditions: 50 μM
Protocol: The release of danger signals such as HSP70 and CRT has been reported to be involved in increasing the susceptibility of tumor cells toward cytotoxic activity of NK cells. Therefore, the effect of the peptide identified as SEQ ID NO: 1 on the susceptibility of tumor cells toward NK cytotoxic activity was evaluated. To do that, the classic target cells to NK activity, K562 cells, were employed. Target cells were labeled with Cr^51 (approximate specific activity: 100 μCi/μg) by incubation for 70 minutes at 37° C. Subsequently, target cells were washed three times with RPMI medium supplemented with 2% FBS and seeded in 96-well plates, at a target:effector ratio of 1:25. On the other hand, NK cells were isolated from peripheral blood mononuclear cells (PBMC) of healthy donors, by negative selection, using magnetic beads (Miltenyi Biotec). Thus, CD56+CD3− NK cells were obtained with more than 96% purity. The peptide identified as SEQ ID NO: 1 was added to the co-culture at 12.5; 25 and 50 μM. After 4 hours of incubation, supernatant was collected for the measurement of Cr^51 release using a scintillation counter. The percentage of specific lysis was calculated as follows: […]
Target cells without coincubation with effector cells were employed as spontaneous lysis control. Target cells with the peptide identified as SEQ ID NO: 1 constitute the toxicity control of the peptide.

[3] = system: OCI-AML3 and HL-60 tumor cells; conditions: read-out: IC50 dose
L1210 cells [4] = assay: Vaccination with treated tumor cells, then challenge with live cells; format: in vivo, DBA/2 mice; conditions: vaccinated with cells treated with 5 μM CX4945 for 24 hours
Protocol: In order to explore whether the cell death induced by the peptide identified as SEQ ID NO: 1 had any immunomodulatory effect, a vaccination schedule was performed in mice with tumor cells previously treated with the peptide identified as SEQ ID NO: 1. For this purpose, 1×10^6 L1210 cells treated in vitro with 40 μM of the peptide identified as SEQ ID NO: 1, or time-matched untreated cells during 3 hours were subcutaneously injected in 0.1 mL in the inguinal area into right flank of 6-8 weeks female DBA/2 mice. After seven days, 1×10^6 live L1210 cells were inoculated on opposite flank, and tumor growth and volume were evaluated until day 45. Tumors were measured with Vernier calipers, three times a week, tumor volume was estimated using the formula: Volume=width^2 (mm)×length/2 (mm). As a positive control, cells treated with 15 μM DOX for 24 hours were used for vaccination. A group vaccinated with 5 μM CX4945-treated cells for 24 hours was also included. In total 4 groups were formed of 10 mice each group.

3LL-OVA cells = assay: Cellular immune response, IFN-γ ELISPOT after inoculation of treated cells; format: in vivo, C57/BL6 mice; conditions: 3LL-OVA cells treated with 40 μM peptide 3 hours, 5 μM CX4945 or 40 μM Tat 3 hours; lymph node cells after 5 days
HL-60 cells = assay: Phagocytosis of treated tumor cells by M1 and M2 macrophages; format: cell-based; conditions: peptide 40 μM and 10 μM 5 hours, CX4945 5 μM 24 hours, Tat 40 μM 5 hours
Protocol: (§1) Treatment with the peptide identified as SEQ ID NO: 1, as described in examples 2 and 3, is capable of increasing “eat me” signals and decreasing “don't eat me” signals. Therefore, it fostered to evaluate whether the treatment with the peptide identified as SEQ ID NO: 1 facilitate phagocytosis of tumor cells by macrophages, and whether this is performed by M1 or M2 macrophages. For that purpose, HL-60 and OCI-AML3 leukemia tumor cell lines were previously stained with 0.5 μM CFSE and treated with 10 or 40 μM of the peptide identified as SEQ ID NO: 1, for five hours, 5 μM CX4945 for 24 hours or 40 μM Tat during 5 hours. Subsequently, cells were washed and co-cultured with each type of M1 and M2 macrophages, at a 1:1 ratio for three hours. Different types of macrophages were obtained from PBMC of healthy donors by Ficoll™ gradient. Monocytes were purified by positive selection, using CD14 beads with an MS column (Miltenyi Biotech, Germany), obtaining 96% purity. Monocytes were seeded at 0.25×10^6 cells/mL/well, in 12-wells plates and were induced with 100 ng/mL of GM-CSF, for seven days, and with 50 ng/mL of IFN-γ for last 24 hours, to obtain M1 macrophages. M2 macrophages were induced with 50 ng/mL of M-CSF for seven days and 100 ng/mL of IL-10 for last 24 hours. […]

OCI-AML3 cells = assay: as above; format: cell-based; conditions: peptide 40 μM and 10 μM 5 hours, CX4945 5 μM 24 hours, Tat 40 μM 5 hours
Protocol: as §1

PDL1 in A549 cells = assay: PDL1 levels by flow cytometry; format: cell-based; conditions: 30 μM peptide, 5 μM CX4945 or 30 μM Tat peptide, 24 hours
Protocol: (§2) Immune checkpoints are currently an important target in cancer immunotherapy, due to their immunosuppressive role during the course of this disease. Taking this into account, effect of the peptide identified as SEQ ID NO: 1 on modulation of PDL1 levels in two non-small cell lung cancer cell lines: […], was evaluated. For that, 5×10^4 cells were seeded in 24-well plates. The day after, cells were treated with 30 μM peptide identified as SEQ ID NO: 1; 5 μM CX4945 or 30 μM Tat peptide, for 24 hours. After treatment, cells were collected, staining with an anti-PDL1 antibody and analyzed by flow cytometry.

PDL1 in H460 cells = assay: PDL1 levels by flow cytometry; format: cell-based; conditions: 30 μM peptide, 5 μM CX4945 or 30 μM Tat peptide, 24 hours
Protocol: as §2

[5] = system: Lewis Lung Carcinoma cells; assay: Anti-PDL1 therapy in a murine model of lung cancer; format: in vivo, C57/BL6 mice
Source text: Taking into account the results obtained in the in vitro test, it was decided to evaluate whether the use of the peptide identified as SEQ ID NO: 1 improved the antitumor efficacy of anti-PDL1 therapy in a murine model of lung cancer. For that, 2×10^5 Lewis Lung Carcinoma cells were subcutaneously implanted (day 0) in 6-8 weeks old C57/BL6 female mice with 17-19 grams of body weight. Nine days after the tumor challenge, 42 animals with 40 mm^3 tumors were randomized into six groups with seven mice each. CX4945 (75 mg/kg) was orally administered in 25 mM NaH2PO4 buffer twice daily. 40 mg/kg of the peptide identified as SEQ ID NO: 1 and 100 μg anti-PDL1 antibody (clone 10F.9G2, isotype rat IgG2b kappa) were intraperitoneally applied. Tumor volume and body weight were determined 3 times a week for 40 days. Tumor volume was measured and calculated as described in Example 7.

## COc1cccc2c1C(=O)c1c(O)c3c(c(O)c1C2=O)C[C@@](O)(C(=O)CO)C[C@@H]3O[C@H]1C[C@H](N)[C@H](O)[C@H](C)O1 [DOX, doxorubicin]
[1]
  IFN-γ production by CD8+ OT-I cells: significantly higher
L1210 cells [2]
  modulation in cytokine levels (IL12p70, TNF-α, IL-6, IL-10): not observed
  intratumoral Foxp3+ T cell levels: significant decrease

## CSCC[C@@H]1NC(=O)[C@H](Cc2c[nH]c3ccccc23)NC(=O)[C@@H](NC(=O)[C@H](C)NC(=O)[C@H](CCC(N)=O)NC(=O)[C@@H]2CCCN2C(=O)[C@@H]2CCCN2C(=O)[C@H](CCCNC(=N)N)NC(=O)[C@H](CCCNC(=N)N)NC(=O)[C@H](CCCNC(=N)N)NC(=O)[C@H](CCC(N)=O)NC(=O)[C@H](CCCNC(=N)N)NC(=O)[C@H](CCCNC(=N)N)NC(=O)[C@H](CCCCN)NC(=O)[C@H](CCCCN)NC(=O)[C@H](CCCNC(=N)N)NC(=O)CN)CSSC[C@@H](C(=O)O)NC(=O)[C@H]([C@@H](C)O)NC(=O)CNC(=O)[C@H](CC(C)C)NC(=O)[C@H](Cc2c[nH]cn2)NC(=O)[C@H](CCCNC(=N)N)NC(=O)[C@@H]2CCCN2C(=O)[C@H](CO)NC1=O [peptide identified as SEQ ID NO: 1] (H-GRKKRRQRRRPPQACWMSPRHLGTC-OH; disulfide 15-25)
K562 cells
  toxicity to target cells: showed toxicity
[3]
  IC50: 40 µM

## O=C(O)c1ccc2c(c1)nc(Nc1cccc(Cl)c1)c1ccncc12 [CX4945]
L1210 cells [2]
  modulation in cytokine levels (IL12p70, TNF-α, IL-6, IL-10): not observed
  intratumoral Foxp3+ T cell levels: not observed
L1210 cells [4]
  vaccine effect of treated cells: did not induce any vaccine effect
3LL-OVA cells
  response of IFN-γ-secreting effector cells (ELISPOT) against OVA and OVA class I peptide: not able to generate this type of response
HL-60 cells
  susceptibility to be phagocytosed by M1 macrophages: not observed
OCI-AML3 cells
  susceptibility to be phagocytosed by M1 macrophages: not observed
PDL1 in A549 cells
  % PDL1+ cells: 29.6%
  IFM: 16.2
PDL1 in A549 cells; in words
  PDL1 expression: Differences were not observed
PDL1 in H460 cells
  % PDL1+ cells: 25.2%
  IFM: 15.23
PDL1 in H460 cells; in words
  PDL1 expression: Differences were not observed
[5]; as alone, plus 100 μg anti-PDL1 antibody intraperitoneal, days 9, 12, 15, 18
  tumor volume, combined with anti-PDL1 antibody: not observed
[5]; peptide 40 mg/kg intraperitoneal or CX4945 75 mg/kg oral twice daily, days 9-13
  tumor progression (tumor volume), alone: not observed
